In patent publication US9113629B2, “4-amino-6-(4-substituted-phenyl)-picolinates and 6-amino-2-(4-substituted-phenyl)-pyrimidine-4-carboxylates and their use as herbicides” (DOW AGROSCIENCES LLC, priority 2013, dated 2015):
Like-named read-outs stand apart in the source and are kept apart here.

How the values were obtained:
[1] = tested on: Key Broadleaf Weed and Crop Species; assay: Post-emergent Test II herbicidal activity (Table 5); type: in vivo; conditions: post-emergence, 336 h, 14 days after application; for pest or weed control at 70 g/ha: application rate 70 g ai/ha; for pest or weed control at 140 g/ha: application rate 140 g ai/ha
Procedure, shortened: (§1)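 Post-emergence foliar spray, 187 L/ha, track sprayer at 43 cm above canopy. Carrier: acetone/water/IPA/DMSO/Atplus 411F/Triton X-155. Plants at 1st–2nd true leaf; subirrigated afterwards; % injury scored visually at 14 d.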

[2] = tested on: Key Grass and Sedge Weeds as well as Grass Crops; assay: Post-emergent Test II herbicidal activity (Table 6); type: in vivo; conditions: post-emergence, 336 h; for pest or weed control at 70 g/ha: 70 g ai/ha; for pest or weed control at 140 g/ha: 140 g ai/ha
Procedure, shortened: as §1

[3] = ABUTH: velvetleaf (Abutilon theophrasti), read-out: Visual Growth Reduction (%) 14 Days After Application, ABUTH
[4] = AMARE: redroot pigweed (Amaranthus retroflexus), read-out: Visual Growth Reduction (%) 14 Days After Application, AMARE
[5] = BRSNN: oilseed-rape, canola (Brassica napus), read-out: Visual Growth Reduction (%) 14 Days After Application, BRSNN
[6] = CHEAL: lambsquarters (Chenopodium album), read-out: Visual Growth Reduction (%) 14 Days After Application, CHEAL
[7] = EPHHL: wild poinsettia (Euphorbia heterophylla), read-out: Visual Growth Reduction (%) 14 Days After Application, EPHHL
[8] = HELAN: sunflower (Helianthus annuus), read-out: Visual Growth Reduction (%) 14 Days After Application, HELAN
[9] = VIOTR: wild pansy (Viola tricolor), read-out: Visual Growth Reduction (%) 14 Days After Application, VIOTR
[10] = CYPES: yellow nutsedge (Cyperus esculentus), read-out: Visual Growth Reduction (%) 14 Days After Application, CYPES
[11] = DIGSA: crabgrass (Digitaria sanguinalis), read-out: Visual Growth Reduction (%) 14 Days After Application, DIGSA
[12] = ECHCG: barnyardgrass (Echinochloa crus-galli), read-out: Visual Growth Reduction (%) 14 Days After Application, ECHCG
[13] = ORYSA: rice (Oryza sativa), crop, read-out: Visual Growth Reduction (%) 14 Days After Application, ORYSA
[14] = SETFA: giant foxtail (Setaria faberi), read-out: Visual Growth Reduction (%) 14 Days After Application, SETFA
[15] = SORVU: grain sorghum (Sorghum vulgare), read-out: Visual Growth Reduction (%) 14 Days After Application, SORVU
[16] = TRZSS (wheat, Triticum aestivum), crop, read-out: Visual Growth Reduction (%) 14 Days After Application, TRZSS
[17] = ZEAMX: maize, corn (Zea mays), crop, read-out: Visual Growth Reduction (%) 14 Days After Application, ZEAMX

Compound C#Cc1ccc(-c2nc(C(=O)O)c(Cl)c(N)c2F)c(F)c1F [Compound 50] has a pest or weed control at 70 g/ha [1, 3] of 60 to 74%, a pest or weed control at 140 g/ha [1, 3] of 60 to 74% and a pest or weed control at 70 g/ha [1, 4] of 0 to 29%. It also gave a pest or weed control at 140 g/ha [1, 4] of 0 to 29%, a pest or weed control at 70 g/ha [1, 5] of 0 to 29% and a pest or weed control at 140 g/ha [1, 5] of 0 to 29%. The pest or weed control at 70 g/ha [1, 6] was 0 to 29%, the pest or weed control at 140 g/ha [1, 6] was 0 to 29% and the pest or weed control at 70 g/ha [1, 7] was 45 to 59%. It also gave a pest or weed control at 140 g/ha [1, 7] of 95 to 100%, a pest or weed control at 70 g/ha [1, 8] of 45 to 59% and a pest or weed control at 140 g/ha [1, 8] of 60 to 74%. For the same compound, the pest or weed control at 70 g/ha [1, 9] was 0 to 29%, the pest or weed control at 140 g/ha [1, 9] was 0 to 29% and the pest or weed control at 70 g/ha [2, 10] was 0 to 29%. The pest or weed control at 140 g/ha [2, 10] was 0 to 29%, the pest or weed control at 70 g/ha [2, 11] was 0 to 29% and the pest or weed control at 140 g/ha [2, 11] was 45 to 59%. For the same compound, the pest or weed control at 70 g/ha [2, 12] was 45 to 59%, the pest or weed control at 140 g/ha [2, 12] was 75 to 84% and the pest or weed control at 70 g/ha [2, 13] was 0 to 29%. It also gave a pest or weed control at 140 g/ha [2, 13] of 0 to 29%, a pest or weed control at 70 g/ha [2, 14] of 30 to 44% and a pest or weed control at 140 g/ha [2, 14] of 45 to 59%. For the same compound, the pest or weed control at 70 g/ha [2, 15] was 0 to 29%, the pest or weed control at 140 g/ha [2, 15] was 0 to 29% and the pest or weed control at 70 g/ha [2, 16] was 0 to 29%. For the same compound, the pest or weed control at 140 g/ha [2, 16] was 0 to 29%, the pest or weed control at 70 g/ha [2, 17] was 95 to 100% and the pest or weed control at 140 g/ha [2, 17] was 95 to 100%. It also gave a melting point of 174 to 176 °C.
